Measured values published in patent US20060223879A1, “Non-steroidal farnesoid x receptor modulators” (priority 2002, published 2006).
“And” between values parts separate entries of the source, which are not always exact repeats. Identical values can stand only once. Like-named read-outs stand apart in the source and are kept apart here.

Key:
[1] = molecular target: T1, SXR (Homo sapiens, UniProt O75469); assay: screen against a panel of nuclear receptors: SXR activation; format: cell-based; settings: nuclear receptor panel
T1 sequence (O75469 1-434): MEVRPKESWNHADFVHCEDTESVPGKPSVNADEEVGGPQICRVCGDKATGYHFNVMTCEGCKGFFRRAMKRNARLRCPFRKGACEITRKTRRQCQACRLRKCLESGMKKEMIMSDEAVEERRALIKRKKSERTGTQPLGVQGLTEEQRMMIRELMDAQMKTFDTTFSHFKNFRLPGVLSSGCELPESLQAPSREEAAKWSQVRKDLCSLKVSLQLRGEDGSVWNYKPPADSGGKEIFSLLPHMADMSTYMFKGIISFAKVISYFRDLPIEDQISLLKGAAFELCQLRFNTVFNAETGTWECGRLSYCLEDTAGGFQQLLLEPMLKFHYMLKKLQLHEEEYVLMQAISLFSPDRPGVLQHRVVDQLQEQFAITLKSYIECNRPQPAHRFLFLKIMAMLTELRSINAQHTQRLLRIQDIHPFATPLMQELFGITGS

[2] = molecular target: T2, FXR (Homo sapiens, UniProt Q96RI1); assay: cell-based transcription assay, FXR responsive promoter linked to a luciferase reporter; set-up: RE: scale not given here; settings: for EC50: FXR activation, read-out: EC50; for EC50 / FXR activation (in words): cell-based reporter assay; for RE: RE not defined in the source
T2 construct: using a full length FXR on a natural response element; expressed in transfected cells
T2 sequence (Q96RI1 1-486): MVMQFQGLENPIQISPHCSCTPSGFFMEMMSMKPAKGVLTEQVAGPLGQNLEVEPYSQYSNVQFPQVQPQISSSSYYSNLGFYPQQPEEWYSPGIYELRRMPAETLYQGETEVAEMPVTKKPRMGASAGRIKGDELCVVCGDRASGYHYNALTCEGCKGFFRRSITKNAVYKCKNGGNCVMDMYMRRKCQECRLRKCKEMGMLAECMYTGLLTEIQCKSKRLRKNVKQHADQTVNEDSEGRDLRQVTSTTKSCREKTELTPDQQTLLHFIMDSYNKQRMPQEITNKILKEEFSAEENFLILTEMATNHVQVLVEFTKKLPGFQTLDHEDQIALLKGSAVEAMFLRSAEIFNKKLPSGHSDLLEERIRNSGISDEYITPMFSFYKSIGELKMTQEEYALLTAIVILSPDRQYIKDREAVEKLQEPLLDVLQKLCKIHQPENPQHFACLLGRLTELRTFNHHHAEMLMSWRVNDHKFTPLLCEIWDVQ
Summary of the method: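 Cells co-transfected with full-length FXR and a luciferase reporter carrying a natural hormone response element on a minimal promoter.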

SXR activation (in words) [1]	EC50 [2]	RE ([2]; Tables 1-15)	FXR activation (in words) [2]	EC50 ([2]; Tables 1-15)	SMILES
potently activated SXR	188 nM	0.50	–	–	COC(=O)/C=C/c1cccc(N(Cc2ccc3c(c2OC)OC(C)(C)C2C3C2(Cl)Cl)C(=O)C2CCCCC2)c1 (stereo not drawn) [Compound 149]
–	358 nM and 348 nM	0.40	–	–	COC(=O)/C=C/c1cccc(N(Cc2ccc3c(c2OC)OC(C)(C)C=C3)C(=O)C2CCCCC2)c1 [Compound 65]
–	–	–	inactive	–	COC(=O)/C=C/c1cccc(N(Cc2ccc3c(c2OC)OC(C)(C)C=C3)S(=O)(=O)c2ccc(C)cc2)c1 [Compound 82]
–	–	–	inactive	–	COC(=O)/C=C/c1cccc(N(Cc2ccc3c(c2OC)OC(C)(C)C=C3)C(=S)C2CC2)c1 [Compound 83]
–	–	1.03	–	173 nM	CCOc1cccc(-c2ccc(CN(C(=O)C(C)C)c3cccc(/C=C/C(=O)OC)c3)cc2)c1 [Compound 227]
–	–	0.10	–	–	COC(=O)/C=C/c1cccc(N(Cc2ccc(/C=C/c3ccc(C)cc3)cc2)C(=O)NC(C)C)c1 [Compound 176]
–	–	0.24	among the least active	518 nM	COC(=O)C=Cc1cccc(N(Cc2ccc(C=Cc3c(C)cc(C)cc3C)cc2)C(=O)C2CCCCC2)c1 [Compound 195]
–	–	0.54	–	561 nM	COC(=O)/C=C/c1cccc(N(Cc2ccc(-c3cc(Cl)cc(Cl)c3)cc2)C(=O)C(C)C)c1 [Compound 221]
–	–	0.87	–	> 1000 nM	COC(=O)C=Cc1ccc(CN(C(=O)C2CCCCC2)c2cccc(C=CC(=O)OC)c2)cc1 [Compound 150]
–	–	0.41	–	1370 nM	COC(=O)/C=C/c1cccc(N(Cc2ccc(-c3cccc(OC)c3)cc2)C(=O)NC(C)C)c1 [Compound 225]
–	–	–	inactive	–	CCOC(=O)/C=C/c1cccc(N(Cc2ccc3c(c2OC)OC(C)(C)C=C3)C(=O)C2CC2)c1 [Compound 30]
–	–	1.51	–	77 nM	COC(=O)/C=C/c1cccc(N(Cc2ccc(-c3cccc(OC)c3)cc2)C(=O)C2CCCCC2)c1 [i]
–	> 1000 nM	–	–	–	COC(=O)C=Cc1cccc(N(Cc2ccc(C=Cc3ccc(C(C)(C)C)cc3)cc2)C(=O)C2CCCCC2)c1 [Compound 123]
–	–	1.64	–	129 nM	COC(=O)/C=C/c1cccc(N(Cc2ccc(-c3ccc(F)c(Cl)c3)cc2)C(=O)C(C)C)c1 [Compound 248]
–	–	0.59	–	343 nM	COC(=O)/C=C/c1cccc(N(Cc2ccc(-c3ccc(CC(C)C)cc3)cc2)C(=O)C(C)C)c1 [Compound 263]
–	208 nM	1.67	–	–	COC(=O)C=Cc1cccc(N(Cc2ccc(C=Cc3ccc(OC)cc3)cc2)C(=O)C2CCCCC2)c1 [Compound 122]

SMILES	SXR activation (in words) [1]	EC50 [2]	RE ([2]; Tables 1-15)	FXR activation (in words) [2]	EC50 ([2]; Tables 1-15)
COC(=O)C=Cc1cccc(N(Cc2ccc3c(c2OC)OC(C)(C)C(OC(C)=O)C3N2CCCCC2)C(=O)c2ccccc2)c1 (stereo not drawn) [Compound 101]	–	–	–	Nor did the addition of H-bond acceptors such as in 89, 90, 95, 99 and 101 improve the ability of the parent compound 68 to activate FXR	–
